Where only a bound is given, the exact number is not on record here.

Chain of Endothelial PAS domain-containing protein 1 (Q99814 whole entry, the tested form may be a part): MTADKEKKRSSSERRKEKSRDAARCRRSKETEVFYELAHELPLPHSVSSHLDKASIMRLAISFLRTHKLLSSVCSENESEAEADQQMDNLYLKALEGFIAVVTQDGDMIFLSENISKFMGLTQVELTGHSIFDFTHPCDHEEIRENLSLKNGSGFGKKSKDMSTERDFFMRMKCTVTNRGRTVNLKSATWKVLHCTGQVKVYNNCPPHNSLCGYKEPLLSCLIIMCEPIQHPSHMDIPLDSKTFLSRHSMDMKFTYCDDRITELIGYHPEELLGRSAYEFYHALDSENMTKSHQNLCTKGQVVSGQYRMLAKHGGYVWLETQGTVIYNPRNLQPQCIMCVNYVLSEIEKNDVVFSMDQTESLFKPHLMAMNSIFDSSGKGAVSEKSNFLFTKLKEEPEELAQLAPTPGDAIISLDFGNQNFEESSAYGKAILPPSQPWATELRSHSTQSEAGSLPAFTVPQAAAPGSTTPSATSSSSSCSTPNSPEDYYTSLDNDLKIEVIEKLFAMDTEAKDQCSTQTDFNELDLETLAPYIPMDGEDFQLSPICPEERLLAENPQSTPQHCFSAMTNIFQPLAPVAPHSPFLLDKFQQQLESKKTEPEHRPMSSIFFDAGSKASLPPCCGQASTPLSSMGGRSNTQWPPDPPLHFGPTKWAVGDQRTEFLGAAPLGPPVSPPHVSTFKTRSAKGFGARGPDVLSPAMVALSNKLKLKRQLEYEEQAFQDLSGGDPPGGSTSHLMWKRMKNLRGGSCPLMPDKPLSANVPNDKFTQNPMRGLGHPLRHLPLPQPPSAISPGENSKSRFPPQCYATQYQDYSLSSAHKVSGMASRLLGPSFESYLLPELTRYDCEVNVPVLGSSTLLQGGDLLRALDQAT

One test concerns the target Endothelial PAS domain-containing protein 1 (Homo sapiens, UniProt Q99814). The test can be described thus: Inhibition of HIF-2alpha (unknown origin).
Conditions: not given
For `CS(=O)(=O)c1ccc([C@H]2CCCc3cc(F)cc(C#N)c32)c2c1[C@H](O)[C@H](F)[C@@H]2F`, the EC50 is below 100 nM.
The same measure, in the same setting: for `CP(C)(=O)c1ccc(Oc2cc(F)cc(F)c2)c2c1C(O)C(F)(F)C2` (stereo not drawn) the value was 29 nM; for `N#Cc1cc(F)cc(Oc2ccc3c4c2C(F)CC4(O)C(F)(F)S3(=O)=O)c1` (stereo not drawn), below 50 nM.
Same read-out and setting: as for `O[C@@H]1CCc2c(Oc3cc(F)cc(F)c3)ncnc21`, the figure is 11 nM; as for `CS(=O)(=O)c1sc(N2CCCc3ccccc32)c2c1[C@H](O)[C@H](F)C2`, 2200 nM; as for `O[C@H]1c2c(C(F)(F)F)ncc(OC3CC(F)(F)C3)c2[C@@H](F)[C@H]1F`, 21 nM.
`OC1c2c(C(F)(F)F)cn(-c3cncc(F)c3)c2CC(F)C1F` (stereo not drawn): the EC50 is 500 nM.
Same read-out and setting: for `N#Cc1cc(F)cc(Oc2ccc(S(=O)(=O)C(F)(F)F)c3[nH]ncc23)c1` the value was below 100 nM; for `CS(=O)(=O)c1ccc(N2CCCc3ccccc32)c2c1[C@H](O)[C@H](F)C2`, 340 nM.

Another test concerns the target T1, Vascular endothelial growth factor A, long form (Homo sapiens, UniProt P15692).
T1 sequence (P15692 whole entry): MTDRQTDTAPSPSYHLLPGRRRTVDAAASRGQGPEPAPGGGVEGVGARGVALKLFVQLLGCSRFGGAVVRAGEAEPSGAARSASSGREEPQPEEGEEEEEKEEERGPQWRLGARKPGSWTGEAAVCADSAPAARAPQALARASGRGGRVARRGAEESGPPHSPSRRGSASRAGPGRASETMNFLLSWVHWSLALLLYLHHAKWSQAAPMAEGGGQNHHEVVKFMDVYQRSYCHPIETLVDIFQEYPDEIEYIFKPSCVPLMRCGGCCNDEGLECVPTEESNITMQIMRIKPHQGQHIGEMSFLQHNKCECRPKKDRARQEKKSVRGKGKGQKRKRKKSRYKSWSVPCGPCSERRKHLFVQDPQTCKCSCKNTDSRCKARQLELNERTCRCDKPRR
The experiment in a line: Inhibition of VEGF (unknown origin) by FRET based analysis.
Conditions: not given
`Fc1c(C(F)(F)F)ncc2c1SC[C@H](F)[C@@]21CN2C=C(C(F)(F)F)C(OC(F)F)=CC2=N1`: the IC50 worked out at 15 nM.
`FC(F)OC1=CC2=N[C@]3(C[C@H]4C[C@H]4c4c3ccnc4Cl)CN2C=C1C(F)(F)F` displayed a concentration for half-maximal inhibition (IC50) of 50 nM.

In a further test the test system is 786-0. The test can be described thus: cells. The settings on record: Homo sapiens, 786-0, 72 h.
Description: Antiproliferative activity against human 786-0 cells assessed as inhibition of cell growth incubated for 72 hrs by celltiter-glo assay
`CC[C@@H](Nc1cccc(F)c1)C(=O)N/N=C/c1cccc(C)c1O` gave a half-inhibitory concentration (IC50) of 5000 nM.
Turning to `CNC(=O)c1ccn2c(C(F)F)cc(-c3ccc(C)c(C)c3)nc12`, the IC50 is below 5000 nM.

The values above are taken from ChEMBL document CHEMBL5579853, “Recent progress in the development of hypoxia-inducible factor 2α (HIF-2α) modulators: Inhibitors, agonists, and degraders (2009-2024)” (Eur J Med Chem, 2024).
